Data as given in US10655144B2, “Nucleic acid construct with a p16 promoter that causes a prodrug converting enzyme to be expressed specifically in senescent cells” (Buck Institute for Research on Aging, priority 2012, dated 2020).

Key:
senescent cells [1] = assay: Lifespan of wild type INK-ATTAC transgenic mice with senescent cells removed by weekly AP20187; assay type: in vivo; conditions: weekly treatment from 10-12 weeks of age; PBS control 21 months; FIG. 4
Protocol: (§1) Clearance of therapy-induced senescent cells improves age-sensitive traits and other health parameters in aged animals. […] INK-ATTAC transgenic animals from each of lineage 3 (TG3) and lineage 5 (TG5) were used in the experiments (see Baker et al., Nature, supra). INK-ATTAC transgenic mice were aged 10-12 weeks, and then cohorts of animals were treated with AP20187 or PBS (control) on a weekly basis from the start of treatment.

senescent cells [2] = assay: Measures of health at 18 months of age (weight, fat mass, treadmill activity) in AP20187-treated INK-ATTAC mice; assay type: in vivo, INK-ATTAC transgenic mice
Protocol: as §1
(§2) When the animals reached 18 months of age, several measures of health and lifespan were taken. Weight, fat mass, activity measurements (treadmill exercise tests to measure distance traveled and duration of exercise) were compared between untreated female mice (n=16) and AP20187-treated female mice (n=21), and compared between untreated male mice (n=19) and AP20187-treated male mice (n=21). Fat mass was greater in both treated females and males compared with the untreated groups (see FIG. 5). […] Treated and untreated mice (5-6 per group) were sacrificed, and adipose cell (AC) diameter, gastrocnemius muscle fiber diameter (μm), abdominal muscle fiber diameter (μm), dermal thickness (μm), subdermal adipose thickness (μm), cardiac performance (introduction of isoproterenol as an exogenous stress in animals prior to sacrifice), and extent of glomerulosclerosis were determined. Treated animals had greater adipose cell diameter (see FIG. 6); better cardiac performance (FIG. 7); and had less sclerotic glomeruli (see FIG. 8) than untreated animals. […] Removal of senescent cells in AP20187-treated animals prevented loss of adipose tissue, prevented loss of cardiac performance, and reduced the extent of glomerulosclerosis.

senescent cells [3] = assay: Tissue and organ analyses after sacrifice (adipose cell diameter, muscle fiber diameter, skin thickness, cardiac performance, glomerulosclerosis) in AP20187-treated INK-ATTAC mice; assay type: in vivo, INK-ATTAC transgenic mice; conditions: treated vs untreated
Protocol: as §1, §2

CC[C@H](C(=O)N1CCCC[C@H]1C(=O)O[C@H](CCc1ccc(OC)c(OC)c1)c1cccc(OCC(=O)NCC(CNC(=O)COc2cccc([C@@H](CCc3ccc(OC)c(OC)c3)OC(=O)[C@@H]3CCCCN3C(=O)[C@@H](CC)c3cc(OC)c(OC)c(OC)c3)c2)CN(C)C)c1)c1cc(OC)c(OC)c(OC)c1 [AP20187]
average lifespan (senescent cells [1]): approximately 26 months
fat mass (senescent cells [2]; treated females and males each vs untreated group of same sex, FIG. 5): greater
activity measurements (treadmill exercise tests: distance traveled and duration of exercise) (senescent cells [2]; treated vs untreated animals): No statistically significant differences
weight (senescent cells [2]; treated vs untreated animals): No statistically significant differences
cardiac performance (senescent cells [3]; isoproterenol as exogenous stress prior to sacrifice, FIG. 7): better
adipose cell (AC) diameter (senescent cells [3]; sacrificed mice, 5-6 per group, FIG. 6): greater
abdominal muscle fiber diameter (senescent cells [3]; sacrificed mice): No significant differences
dermal thickness (senescent cells [3]; sacrificed mice): No significant differences
gastrocnemius muscle fiber diameter (senescent cells [3]; sacrificed mice): No significant differences
subdermal adipose thickness (senescent cells [3]; sacrificed mice): No significant differences
extent of glomerulosclerosis (sclerotic glomeruli) (senescent cells [3]; sacrificed mice, FIG. 8): less
